Results on 66 compounds are retold here after PubChem BioAssay AID792 (PCMD, 2007).

Inconclusive results are not listed. Activity calls are given as the source filed them. The rule behind the calls is not given here.

The target of this assay is S. cerevisiae eIF2B mutant, luciferase reporter luminescence. Put plainly: eIF2B reporter inhibitors in yeast strains, dose response, S. cerevisiae, mutant, wild-type, luminescence, growth (AID 792).
[1] abbreviates: measured here: mutant yeast growth.
The mark [2] stands for this setting: S. cerevisiae wild-type, luminescence.

As for `Cc1ncc(CC(=O)n2cc(C(=O)c3cc(F)ccc3O)cn2)s1`, the IC50 was > 100 µM (inactive). This compound also gave a 50% inhibitory concentration (IC50) under setting [1] of more than 100 µM.

Consider `Cc1cc(C(=O)Nc2ccccc2C(F)(F)F)no1`, for which the IC50 was > 100 µM (inactive). The IC50 under setting [1] is more than 100 µM.

On to `Cn1c(SC2C(=O)CC(C)(C)CC2=O)nnc1-c1ccco1`, for which the IC50 was > 100 µM (inactive). This compound also registered an IC50 under setting [1] of more than 100 µM.

On to `Nc1cc2c(cc1C(=O)c1ccccc1)OCCO2`, for which the IC50 was > 100 µM (inactive). The same compound displayed a concentration for half-maximal inhibition (IC50) under setting [1] of more than 100 µM.

Turning to `CCc1ccc2c(c1)C1(NN=C(c3ccc(C)cc3)S1)C(=O)N2` (stereo unspecified), the IC50 entry was “inactive”. This compound also came in with an IC50 under setting [2] of more than 100 µM. Besides, the IC50 under setting [1] is 99 µM.

In the case of `CC(C)CC[n+]1ccn(-c2nc3ccccc3nc2[N-]S(=O)(=O)c2ccccc2)c1`, the IC50 is > 100 µM (inactive). This compound registered an IC50 under setting [1] of more than 100 µM.

For `O=C(Cn1nnc(-c2ccc(Cl)cc2)n1)NC1CC2CCC1C2` (stereo unspecified), the IC50 is > 100 µM (inactive). The compound also showed an IC50 under setting [1] of more than 100 µM.

As for `COc1ccc(OC)c2c(N3CCN(C)CC3)cc(C(F)(F)F)nc12`, the IC50 is > 100 µM (inactive). Further, the IC50 under setting [1] is more than 100 µM.

For the compound `Cn1c(/N=C/c2c(O)ccc3ccccc23)nc2ccccc21`, the IC50 was > 100 µM (inactive). Besides, the IC50 under setting [1] was more than 100 µM.

As for `CCOC(=O)CSc1ccc(-c2nc3cc(C)c(C)cc3[nH]2)cn1`, the IC50 was > 100 µM (inactive). Besides, the IC50 under setting [1] was more than 100 µM.

For `COc1ccc(C(=O)COC(=O)CN2C(=O)NC(C)(C)C2=O)cc1OC`, the IC50 is > 100 µM (inactive). Further, the half-maximal inhibitory concentration (IC50) under setting [1] is more than 100 µM.

For `Nc1ccc2oc(CCc3ccccc3)nc2c1`, the IC50 is > 100 µM (inactive). In addition, the IC50 under setting [1] is more than 100 µM.

For `Fc1ccc(Nc2nc(Oc3ccc4c(c3)OCO4)nc(N3CCOCC3)n2)c(F)c1`, the IC50 is > 100 µM (inactive). This compound yielded an IC50 under setting [1] of more than 100 µM.

`Cn1c(=O)[nH]c(=O)c2c1nc(Br)n2CCCCSc1nc2ccccc2o1`: the IC50 is > 100 µM (inactive). This compound gave an IC50 under setting [1] of more than 100 µM.

Take `CC(N=c1ccccn1C(=O)Nc1cccc(C(F)(F)F)c1)c1ccco1` (stereo unspecified): the IC50 is > 100 µM (inactive). Under setting [1], this compound registered an IC50 of more than 100 µM.

As for `COc1cc(C(=S)N2CCCC2)cc(OC)c1O`, the IC50 is > 100 µM (inactive). This compound showed an IC50 under setting [1] of more than 100 µM.

Consider `COc1cc(/C=C2\C(=O)N(CCC#N)N=C2C)c(Br)cc1OC(C)C`, for which the IC50 is > 100 µM (inactive). Besides, the IC50 under setting [1] is more than 100 µM.

Regarding `O=C(CCN1CCN(Cc2ccccc2)CC1)Nc1cccc(Cl)c1`, the IC50 is > 100 µM (inactive). Also, the IC50 under setting [1] is more than 100 µM.

On to `COC(=O)Cn1c2ccc(OC)cc2c2nc3ccccc3nc21`, for which the IC50 is > 100 µM (inactive). In addition, the IC50 under setting [1] is more than 100 µM.

Consider `O=C(NCc1ccco1)c1sc(=S)n2c1[nH]c(=O)c1ccccc12`, for which the IC50 is > 100 µM (inactive). This compound also registered an IC50 under setting [1] of more than 100 µM.

In the case of `CCN(CC)c1ncnc2sc(C(=O)N3CCN(c4ccccc4)CC3)c(C)c12`, the IC50 was > 100 µM (inactive). This compound gave an IC50 under setting [1] of more than 100 µM.

Regarding `Cc1ccc(-c2nnc(COc3cccc(-n4cnnn4)c3)o2)cc1`, the IC50 was > 100 µM (inactive). Also, under setting [1], the IC50 is more than 100 µM.

As to `CNC(=O)Cn1nc(-c2ccc(C)c(S(=O)(=O)N(C)C)c2)c2ccccc2c1=O`, the IC50 was > 100 µM (inactive). This compound displayed an IC50 under setting [1] of more than 100 µM.

`CN1C(=O)NC(c2ccccc2)C2=C1CN(c1cccc(C(F)(F)F)c1)C2=O` (stereo unspecified): the IC50 was > 100 µM (inactive). Further, the IC50 under setting [1] was more than 100 µM.

For the compound `O=C1c2ccncc2C(=O)N1C1CCCCC1`, the IC50 was > 100 µM (inactive). This compound also gave an IC50 under setting [1] of more than 100 µM.

`CCOC(=O)C1CCCN(C(=O)c2cc3c(C)nc4ccccc4c3o2)C1` (stereo unspecified): the IC50 is > 100 µM (inactive). The IC50 under setting [1] was more than 100 µM.

Turning to `CC(NC(=O)Nc1ccc(F)cc1F)c1ccncc1` (stereo unspecified), the IC50 is > 100 µM (inactive). Further, the IC50 under setting [1] is more than 100 µM.

Take `COc1ccc(C(=O)/C=C/Nc2ccccn2)cc1`: the IC50 result was “inactive”. The compound further gave an IC50 under setting [2] of 18.3 µM. For the same compound, the half-inhibitory concentration (IC50) under setting [1] was more than 100 µM.

Consider `CN1CCN(c2nc(N3CCN(CCO)CC3)nc3ccccc23)CC1`, for which the IC50 was > 100 µM (inactive). Moreover, the half-inhibitory concentration (IC50) under setting [1] was more than 100 µM.

Regarding `O=C(NCCC1=CCCCC1)c1ccc(=O)oc1`, the IC50 was > 100 µM (inactive). Further, the IC50 under setting [1] was more than 100 µM.

With `COCCn1c(C)cc(C2=NNC(=Nc3ccccc3)SC2)c1C`, the IC50 was > 100 µM (inactive). In addition, under setting [1], the IC50 is more than 100 µM.

Regarding `CCCn1c(SCC(=O)Nc2nc3c(s2)CCCC3)nc2c1c(=O)n(C)c(=O)n2C`, the IC50 is > 100 µM (inactive). Under setting [1], this compound yielded an IC50 of more than 100 µM.

`COc1ccc(NC(=O)CSc2ncnc3c2cnn3Cc2ccccc2)cc1OC`: the IC50 was > 100 µM (inactive). Under setting [1], this compound gave an IC50 of more than 100 µM.

For the compound `O=C(Nc1nc(-c2ccc(S(=O)(=O)N3CCCCCC3)cc2)cs1)c1cccs1`, the IC50 is > 100 µM (inactive). Also, the IC50 under setting [1] was more than 100 µM.

For the compound `CSc1ccccc1NC(=O)c1noc2c1CCC2`, the IC50 was > 100 µM (inactive). Under setting [1], this compound gave an IC50 of more than 100 µM.

In the case of `CCOC(=O)CC(=O)CSc1nc(C)cc(-c2cccnc2)c1C#N`, the IC50 was > 100 µM (inactive). In addition, the IC50 under setting [1] is more than 100 µM.

Regarding `COC(=O)CC1Oc2ccccc2N(Cc2ccc(C)cc2)C1=O` (stereo unspecified), the IC50 was > 100 µM (inactive). Moreover, the IC50 under setting [1] was more than 100 µM.

For the compound `CCOC(=O)N1CCN(C(=O)c2nn(-c3cc(OC)cc(OC)c3)c(=O)c3ccccc23)CC1`, the IC50 was > 100 µM (inactive). Under setting [1], this compound came in with an IC50 of more than 100 µM.

Consider `CCCCOc1ccc(OCCCC)c2c1NC1(N2)C(=O)N(C(C)=O)c2ccccc21`, for which the IC50 is > 100 µM (inactive). This compound yielded an IC50 under setting [1] of more than 100 µM.

Take `CCOc1ccc(S(=O)(=O)N2CCC(C(N)=O)CC2)c2ccccc12`: the IC50 was > 100 µM (inactive). The same compound gave an IC50 under setting [1] of more than 100 µM.

`Cc1cccc(N2C(=O)C3C4C=CC(C4)C3C2=O)c1` (stereo unspecified): the IC50 was > 100 µM (inactive). The IC50 under setting [1] is more than 100 µM.

As to `Fc1ccc2nc(Nc3nc4c(s3)CCCC4)sc2c1`, the IC50 was > 100 µM (inactive). Also, the IC50 under setting [1] is more than 100 µM.

Consider `COc1ccccc1CC(=O)N1CCN(c2cccc(C(F)(F)F)c2)CC1`, for which the IC50 was > 100 µM (inactive). In addition, the IC50 under setting [1] is more than 100 µM.

Consider `COC(=O)c1nn2c(C(F)(F)F)cc(-c3ccc(Br)o3)nc2c1Br`, for which the IC50 was > 100 µM (inactive). The compound also registered an IC50 under setting [1] of more than 100 µM.

As to `c1ccc(-c2cc(-c3nn4c(-c5ccco5)nnc4s3)c3ccccc3n2)cc1`, the IC50 was > 100 µM (inactive). Also, under setting [1], the IC50 is more than 100 µM.

As to `c1ccc(SCc2nc(-c3ccccn3)no2)cc1`, the IC50 is > 100 µM (inactive). Moreover, the IC50 under setting [1] was more than 100 µM.

In the case of `COCC(=O)Nc1cc(OC)c(Cl)cc1OC`, the IC50 is > 100 µM (inactive). This compound had an IC50 under setting [1] of more than 100 µM.

For `COC(=O)CSc1nnc2n(-c3ccc(OC)cc3)c(=O)c3c4c(sc3n12)CCCCC4`, the IC50 was > 100 µM (inactive). For the same compound, under setting [1], the IC50 was 87.1 µM.

For the compound `C=CCN1CC(c2nc3ccccc3n2Cc2cccc3ccccc23)CC1=O` (stereo unspecified), the IC50 was > 100 µM (inactive). Also, the half-maximal inhibitory concentration (IC50) under setting [1] is more than 100 µM.

Turning to `CCOC(=O)CSC1=Nc2ccccc2C2=NC(CC(=O)NCc3ccccc3)C(=O)N12` (stereo unspecified), the IC50 is > 100 µM (inactive). The compound also yielded an IC50 under setting [1] of more than 100 µM.

`Cn1c(SCc2ccc(F)cc2)nnc1-c1cccs1`: the IC50 is > 100 µM (inactive). In addition, the IC50 under setting [1] was more than 100 µM.

For `COc1cccc(-n2ccnc2SCC(=O)Nc2cc(OC)ccc2OC)c1`, the IC50 was > 100 µM (inactive). The compound further returned an IC50 under setting [1] of more than 100 µM.

Turning to `CCc1cc(=O)oc2cc3oc(C)c(C)c3cc12`, the IC50 was > 100 µM (inactive). The compound further returned an IC50 under setting [1] of more than 100 µM.

For the compound `Nc1nnnn1/N=C/c1ccc(O)cc1`, the IC50 result is “inactive”. Under setting [2], this compound returned an IC50 of 2.78 µM. Also, the IC50 under setting [1] is more than 100 µM.

As to `Cc1cc(C)cc(OCc2nnc(SCC(=O)N3CCN(c4ccccc4)CC3)o2)c1`, the IC50 is > 100 µM (inactive). The IC50 under setting [1] was more than 100 µM.

Turning to `Cc1ccc2c(c1)N(CC(=O)NCc1cccnc1)C(=O)CO2`, the IC50 is > 100 µM (inactive). Besides, under setting [1], the IC50 is more than 100 µM.

Turning to `O=C(c1ccc(Br)o1)N1CCCc2ccccc21`, the IC50 was > 100 µM (inactive). For the same compound, under setting [1], the IC50 is more than 100 µM.

With `O=C(Cc1ccccc1)N(c1ccc(F)cc1)C1C=CS(=O)(=O)C1` (stereo unspecified), the IC50 was > 100 µM (inactive). Also, the IC50 under setting [1] was more than 100 µM.

Turning to `Cc1cc(C(=O)Nc2ccccc2)oc1C`, the IC50 result is “inactive”. The same compound yielded a 50% inhibitory concentration (IC50) under setting [2] of 84.2 µM. Under setting [1], this compound came in with an IC50 of more than 100 µM.

For the compound `C=CCc1cccc(CNc2nc3ccccc3n2C(C)C)c1O`, the IC50 was > 100 µM (inactive). For the same compound, the IC50 under setting [1] is more than 100 µM.

Turning to `COC(=O)C(NC(=O)c1ccco1)(Nc1nc(C)cs1)C(F)(F)F` (stereo unspecified), the IC50 was > 100 µM (inactive). The half-maximal inhibitory concentration (IC50) under setting [1] was more than 100 µM.

In the case of `COc1ccc(S(=O)(=O)N2CCCCC2)cc1C(C)C`, the IC50 was > 100 µM (inactive). Also, the IC50 under setting [1] is more than 100 µM.

As for `CN(CCO)c1nc(N)c2c(N)nc3c(c2c1C#N)CC(=O)N3C1CCCC1`, the IC50 was > 100 µM (inactive). This compound also showed an IC50 under setting [1] of more than 100 µM.

`COc1cc(-c2nn3c(-c4ccccn4)nnc3s2)cc(OC)c1OC`: the IC50 was > 100 µM (inactive). This compound returned an IC50 under setting [1] of more than 100 µM.

`COc1cccc(NC(=O)CN(c2ccc(C)cc2)S(=O)(=O)c2c(C)nn(C)c2C)c1`: the IC50 is > 100 µM (inactive). In addition, under setting [1], the IC50 was more than 100 µM.

As for `CN(C)S(=O)(=O)c1cccc(NC(=O)COC(=O)c2ccc(Br)o2)c1`, the IC50 is > 100 µM (inactive). The IC50 under setting [1] is more than 100 µM.

Broadly, the IC50 is the point on the concentration scale where inhibition reaches its midpoint.
